# “And” between values parts separate entries of the source, which are not always exact repeats. Identical values can stand only once.
# Tests used:
# THIK-1 R92A = target: T1, THIK-1 R92A (Homo sapiens, UniProt Q9HB14, R92A); assay: Inside-out excised patch recordings, oocytes, THIK-1 R92A mutant (lipid activation); format: cell-based; details: for EC50: Linoleic acid EC50, THIK-1 R92A; for Fold activation with 30.0 µM linoleic acid: THIK-1 R92A
# T1 construct: expressed in transfected cells; host or cells: Xenopus oocytes (mRNA injection)
# T1 sequence (Q9HB14 1-408 R92A): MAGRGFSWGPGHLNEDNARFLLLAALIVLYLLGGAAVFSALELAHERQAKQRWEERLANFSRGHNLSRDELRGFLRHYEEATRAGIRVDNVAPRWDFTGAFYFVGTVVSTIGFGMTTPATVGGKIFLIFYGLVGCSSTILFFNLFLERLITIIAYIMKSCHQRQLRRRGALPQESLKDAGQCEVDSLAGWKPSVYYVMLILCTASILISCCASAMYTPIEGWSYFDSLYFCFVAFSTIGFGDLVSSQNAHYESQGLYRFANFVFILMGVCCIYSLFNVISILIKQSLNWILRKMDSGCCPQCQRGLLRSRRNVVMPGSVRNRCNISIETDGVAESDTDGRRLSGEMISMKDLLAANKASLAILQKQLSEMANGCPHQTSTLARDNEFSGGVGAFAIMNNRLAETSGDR
# Text: (§1) Human K2P13.1 THIK-1 (GenBank accession number: NM_022054) and human K2P12.1 THIK-2 (NM_022055.1) were used in this study. For functional expression studies, the respective K^+ channel subtype coding sequences were subcloned into the oocyte expression vector pSGEM or the dual-purpose expression vector pFAW[41] and verified by sequencing. All mutant channels were obtained by site-directed mutagenesis and verified by sequencing. To increase surface expression and macroscopic currents, measurements of THIK-2 channels used a mutated ER retention motif, (R11A R12A R14A R15A R16A; THIK-2*)[20]. Vector DNA was linearized with NheI or MluI, and mRNA was synthesized in vitro using the SP6 or T7 AmpliCap Max High Yield Message Maker Kit (Cellscript, USA) or HiScribe T7 ARCA mRNA Kit (New England Biolabs).
# (§2) Two-electrode voltage–clamp (TEVC) studies were performed in Xenopus oocytes. All animal use conformed to the Guide for the Care and Use of Laboratory Animals (NIH Publication 85–23), and all experiments using Xenopus toads were approved by the local ethics panels. Oocytes were stored at 17 °C in ND96 recording solution composed of (in mM): 96 NaCl, 2 KCl, 1.8 CaCl2, 1 MgCl2, 5 HEPES (pH 7.5 adjusted with NaOH and HCl), supplemented with Na-pyruvate (275 mg L^–1), theophylline (90 mg L^–1) and gentamicin (50 mg L^–1). Oocytes were injected with 1 ng mRNA for WT or mutant channels, and were incubated for 24–48 h at 17 °C. Two-electrode voltage clamp recordings were then performed as previously described[42],[43]. For macroscopic patch–clamp measurements, oocytes were obtained as described above incubated at 17 °C in a solution containing (mM): 54 NaCl, 30 KCl, 2.4 NaHCO3, 0.82 MgSO4 ×7 H2O, 0.41 CaCl2, 0.33 Ca(NO3)2 ×4 H2O and 7.5 TRIS (pH 7.4 adjusted with NaOH and HCl) for 1–4 days before use. Excised patch recordings in inside-out configuration conditions were performed at room temperature. Patch pipettes were made from thick-walled borosilicate glass GB 200TF-8P (Science Products), had resistances of 0.2–0.5 MΩ (tip diameter, 10–25 µm) and filled with a pipette solution (in mM): 120 KCl, 10 HEPES and 3.6 CaCl2 (pH 7.4 adjusted with KOH and HCl). Intracellular bath solutions and compounds were applied to the cytoplasmic side of excised patches for the various K^+ channels through a gravity flow multi-barrel pipette system. The intracellular solution had the following composition (in mM): 120 KCl, 10 HEPES, 2 EGTA and 1 pyrophosphate (pH adjusted with KOH and HCl). Currents were recorded with an EPC10 amplifier (HEKA Electronics) and sampled at 10 kHz or higher, with filtering set to 3 kHz (–3 dB) or higher, as appropriate for sampling rate. For measurements of GPCR activation, whole-cell currents were recorded for THIK-1 in transiently transfected HEK-293 cells. Cells were stimulated by a ramp protocol between −100 and +60 mV (holding potential, −80 mV). The pipette solution was composed of (in mM): 140 KCl, 2 MgCl2, 1 CaCl2, 2.5 EGTA and 10 HEPES (pH 7.3 adjusted with KOH and HCl). The extracellular bath solution had the following composition (in mM): 135 NaCl, 5 KCl, 2 MgCl2, 2 CaCl2, 10 glucose and 10 HEPES pH (pH 7.3 adjusted with NaOH and HCl). Oxotremorine M (Oxo-M) was added to extracellular bath solution to obtain the final concentration. Single-channel currents were recorded with an Axopatch 200B amplifier through a Digidata 1440A digitizer (Molecular Devices). Data were filtered at 2 kHz and recorded at a 200-kHz sampling rate with the program Clampex (Molecular Devices). Pipette solution and bath solution for cell-attached recordings contained (in mM): 140 KCl, 2 MgCl2, 1 CaCl2 and 10 HEPES (pH 7.4 adjusted with KOH and HCl). For inside-out recordings, the bath solution contained (in mM): 140 KCl, 2 MgCl2, 1 CaCl2 and 10 HEPES (pH 7.2 adjusted with KOH and HCl). All experiments were conducted at room temperature. […]
# [1] = target: T2, human K2P12.1 THIK-2 (THIK-2*) (Homo sapiens, UniProt Q9HB15, R11A/R12A/R14A/R15A/R16A); assay: Inside-out excised patch recordings, oocytes, THIK-2* (ER-retention mutant); format: cell-based; details: for Normalized currents: THIK-2* (unstimulated)
# T2 construct: expressed in transfected cells; host or cells: Xenopus oocytes (mRNA injection)
# T2 sequence (Q9HB15 1-430 R11A/R12A/R14A/R15A/R16A): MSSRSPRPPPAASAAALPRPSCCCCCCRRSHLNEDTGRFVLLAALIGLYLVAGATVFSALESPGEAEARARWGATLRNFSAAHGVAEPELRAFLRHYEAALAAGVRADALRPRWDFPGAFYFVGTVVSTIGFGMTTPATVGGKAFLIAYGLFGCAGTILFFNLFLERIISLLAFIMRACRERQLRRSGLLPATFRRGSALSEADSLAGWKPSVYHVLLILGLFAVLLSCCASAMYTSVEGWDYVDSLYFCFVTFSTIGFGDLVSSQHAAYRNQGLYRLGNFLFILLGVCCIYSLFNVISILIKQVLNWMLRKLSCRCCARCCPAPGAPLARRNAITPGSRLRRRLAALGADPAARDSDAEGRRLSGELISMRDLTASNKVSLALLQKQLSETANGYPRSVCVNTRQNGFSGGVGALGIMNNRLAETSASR
# Text: as §1, §2
# [2] = THIK-2* WT (unstimulated), mean
# [3] = THIK-2* WT, individual recordings
SMILES,EC50 (THIK-1 R92A; individual recordings),EC50 (THIK-1 R92A; mean),Fold activation with 30.0 µM linoleic acid (THIK-1 R92A; individual recordings),Fold activation with 30.0 µM linoleic acid (THIK-1 R92A; mean),Normalized currents ([1]; 0.1 µM TPenA),Normalized currents ([1]; 1 µM TPenA),Normalized currents ([1]; 10 µM TPenA),Normalized currents ([1]; 100 µM TPenA),Normalized currents ([1]; 1000 µM TPenA),Normalized currents ([1]; 5000 µM TPenA),"τ of 1 mM TPenA block [1, 2]","τ of 1 mM TPenA release [1, 2]","τ of 1 mM TPenA block [1, 3]","τ of 1 mM TPenA release [1, 3]"
CCCCC/C=C\C/C=C\CCCCCCCC(=O)O [linoleic acid],52.3 µM and 38.8 µM and 36.8 µM and 60.6 µM and 44.2 µM and 91.1 µM and 115 µM,62.6 µM,1.900 and 2.280 and 2.410 and 2.160 and 1.740 and 1.840 and 1.500 and 1.630 and 1.510,1.89,,,,,,,,,,
"CCCCC[N+](CCCCC)(CCCCC)CCCCC [TPenA, tetrapentylammonium]",,,,,0.99,0.98,0.94,0.71,0.41,0.35,3.83 s,3.40 s,5.710 s and 3.800 s and 2.660 s and 5.630 s and 4.260 s and 2.170 s and 2.560 s,4.580 s and 3.250 s and 3.550 s and 3.310 s and 3.680 s and 2.030 s
